Assay results from article PMC6697720, “Saturation of acyl chains converts cardiolipin from an antagonist to an activator of Toll-like receptor-4” (Cellular and Molecular Life Sciences: CMLS, 2019).

Experiments:
[1] = test system: primary human monocytes; assay: TNF-α and IL-1β secretion in primary human monocytes incubated with CL; format: cell-based; conditions: with NLRP3 inhibitor MCC950
Description: Human monocytes were isolated from PBMCs by immunomagnetic negative selection using the EasySep™ human monocyte enrichment kit without CD16 depletion (STEMCELL™ Technologies).
(§1) 100.000 of freshly isolated PBMCs or monocytes were mixed with stimulants to a final volume of 160 μL/well in round bottom 96-well plates.
(§2) After stimulation, supernatants were collected, centrifuged, and assayed for cytokine secretion, while cells were assayed for viability.
TNF-α and IP-10 were quantified in cell supernatants using DuoSet ELISA kits from R&D Systems and human IL-1β using Instant ELISA™ Kit from Invitrogen, according to the manufacturer’s instructions. Absorbance was read with a BioTek Synergy HT Microplate Readers.
Fig. 3 Saturated but not unsaturated CLs have pro-inflammatory properties. a RAW-Blue™ cells were incubated overnight with the indicated amount of CL or LPS, supernatants were collected, and NF-κB activation quantified via Quanti-Blue™ test and reported here as fold induction as compared to control. Unpaired t test: differences with respect to the control (Ctrl) are not significant if p > 0.05 (no symbol); *p ≤ 0.0007. b Immortalized BMDM cells were incubated overnight with the indicated amount of CL or LPS; supernatants were collected and TNF-α quantified via ELISA assay. c, d Primary human monocytes were incubated overnight with the indicated amount of CL or LPS with or without the NLRP3 inhibitor MCC950, supernatants were collected, and TNF-α and IL-1β were quantified via ELISA assay. Graphs are representative of experiments from six different donors. Unpaired t test: differences with respect to the control (Ctrl) are not significant if p > 0.05 (no symbol); *p ≤ 0.021. Each bar represents the mean + standard deviation of three biological replicates (n = 3). Graphs are representative of at least three independent experiments
C18:0 and C18:2 CLs’ pro-inflammatory activities were validated in primary monocytes isolated from human donor blood. C18:0 CL but not C18:2 CL reproduced LPS activity inducing TNF-α and IL-1β secretion in a dose-dependent manner (Fig. 3c, d).

[2] = test system: human PBMCs; assay: LPS-induced TNF-α and IL-1β release in human PBMCs; format: cell-based; conditions: LPS 100 ng/mL
Description: Blood from healthy volunteers was collected upon informed consent. PBMCs were obtained by Ficoll gradient centrifugation in Histopaque-1077 (Sigma-Aldrich, St Louis, Missouri, United States) using SepMate™ isolation tubes from STEMCELL™ according to the manufacturer’s instructions. Isolated PBMCs were resuspended in RPMI 1640 supplemented with 10% heat-inactivated FBS.
as §1, §2
TNF-α and IP-10 were quantified in cell supernatants using DuoSet ELISA kits from R&D Systems and human IL-1β using Instant ELISA™ Kit from Invitrogen, according to the manufacturer’s instructions. Absorbance was read with a BioTek Synergy HT Microplate Readers. […]

CC(C)(O)c1coc(S(=O)(=O)NC(=O)Nc2c3c(cc4c2CCC4)CCC3)c1 [MCC950] was tested, and the “inhibition of saturated CL-induced IL-1β secretion” value [1] was “inhibited”, the “inhibition of LPS-induced TNF-α secretion” value ([2]; 4 h) was “not” and the “inhibition of LPS-induced IL-1β secretion” value ([2]; 16 h) was “able to inhibit”.
